Drawing on PubChem BioAssay (NCI), this text covers GI50 and TGI for nine molecules.

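Results reflect a 48-hour exposure of cells in 96-well plates to compound at five concentrations. GI50: concentration for 50% inhibition of growth. TGI marks complete inhibition of growth.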

Test systems include NCI-H226 lung; HT29 colon; NCI-H460 lung; HCC-2998 colon; K-562 leukemia; CAKI-1 renal; HL-60(TB) leukemia; SK-MEL-28 melanoma; CCRF-CEM leukemia; A498 renal.
What all share (assay): NCI-60 cell line screen, 48 h

Take `CN1CCC(C(=O)Nc2n[nH]c3nnc(-c4ccccc4)cc23)CC1`: the GI50 in the assay with NCI-H226 lung is above 22.3 µM; with HT29 colon it was above 17.8 µM; with NCI-H460 lung, above 25 µM; in the assay on HCC-2998 colon, above 25 µM; in the assay with K-562 leukemia, above 25 µM; in the assay with CAKI-1 renal it was above 25 µM. For the same molecule, the GI50 in the assay with HL-60(TB) leukemia is above 25 µM; in the assay with SK-MEL-28 melanoma, above 25 µM; in the assay with CCRF-CEM leukemia it was above 25 µM; in the assay on A498 renal, 5.67 µM. Further, the TGI in the assay on NCI-H226 lung, with HT29 colon, in the assay on NCI-H460 lung, in the assay on HCC-2998 colon, in the assay with K-562 leukemia and in the assay on CAKI-1 renal was above 25 µM each time. In addition, the TGI is above 25 µM in the assay on HL-60(TB) leukemia, above 25 µM with SK-MEL-28 melanoma, above 25 µM in the assay with CCRF-CEM leukemia and above 21.5 µM in the assay with A498 renal.
In the case of `NC(=O)N1N=C2c3ccccc3OC[C@H]2[C@@H]1c1ccccc1`, the TGI was 74.7 µM with NCI-H226 lung; 67.6 µM in the assay with HT29 colon; 60.2 µM with NCI-H460 lung; above 37.1 µM in the assay on HCC-2998 colon; above 100 µM in the assay with K-562 leukemia; above 100 µM in the assay with CAKI-1 renal. Further, the TGI was 61.7 µM in the assay on HL-60(TB) leukemia, above 100 µM in the assay on SK-MEL-28 melanoma, above 100 µM with CCRF-CEM leukemia and above 81.5 µM in the assay with A498 renal.
`COc1cc(C(=O)Nc2ccc(-c3nc4ccccc4[nH]3)cc2)cc(OC)c1OC`: the GI50 was 15.3 µM with NCI-H226 lung; 5.95 µM in the assay on HT29 colon; 5.74 µM with NCI-H460 lung; 14.6 µM in the assay with HCC-2998 colon; 7.39 µM in the assay with K-562 leukemia; 10.9 µM in the assay with CAKI-1 renal. Further, the GI50 in the assay with HL-60(TB) leukemia was 17.8 µM; in the assay with SK-MEL-28 melanoma, 13.7 µM; with CCRF-CEM leukemia it was 7.9 µM; in the assay with A498 renal, 7.07 µM. Further, the TGI with NCI-H226 lung worked out at 36.7 µM; in the assay on HT29 colon it was 19.6 µM; with NCI-H460 lung, 22.7 µM; with HCC-2998 colon it was 36.6 µM; with K-562 leukemia it was 27.4 µM; in the assay with CAKI-1 renal, 25.3 µM. The TGI with HL-60(TB) leukemia amounted to 56.4 µM; in the assay with SK-MEL-28 melanoma, 28.6 µM; in the assay on CCRF-CEM leukemia, 39.3 µM; in the assay on A498 renal it was 25.4 µM.
Consider `c1ccc(-c2nc3ccccc3[nH]2)c(OCCCCCOc2ccccc2-c2nc3ccccc3[nH]2)c1`, for which the GI50 with NCI-H226 lung is 20 µM; with HT29 colon, 12.1 µM; with NCI-H460 lung, 3.75 µM; with HCC-2998 colon it was 16.1 µM; in the assay on K-562 leukemia, 4.35 µM; in the assay on CAKI-1 renal it was 12.5 µM. The GI50 in the assay with HL-60(TB) leukemia is 2.57 µM; in the assay with SK-MEL-28 melanoma it was 3.07 µM; in the assay on CCRF-CEM leukemia, 4.14 µM; in the assay on A498 renal it was 12.1 µM. Also, the TGI was 47.4 µM in the assay with NCI-H226 lung; 44.1 µM in the assay on HT29 colon; 25.6 µM with NCI-H460 lung; 67.2 µM with HCC-2998 colon; above 100 µM in the assay with K-562 leukemia; 29.9 µM in the assay on CAKI-1 renal. Further, the TGI with HL-60(TB) leukemia stood at 7.76 µM; in the assay on SK-MEL-28 melanoma, 14 µM; with CCRF-CEM leukemia, 29.8 µM; in the assay on A498 renal, 25.5 µM.
For the molecule `Cc1nc2sc(C(=O)Nc3cccc(Cl)c3)c(N)c2cc1C(O)c1ccccc1` (stereo not given), the GI50 is 3.53 µM in the assay on NCI-H226 lung; 0.387 µM with HT29 colon; 0.379 µM with NCI-H460 lung; 1.98 µM in the assay with HCC-2998 colon; 0.488 µM in the assay with K-562 leukemia; 0.789 µM in the assay on CAKI-1 renal. The GI50 is 0.401 µM in the assay on HL-60(TB) leukemia, 3.12 µM with SK-MEL-28 melanoma, 0.483 µM in the assay on CCRF-CEM leukemia and 0.181 µM with A498 renal. The TGI in the assay with NCI-H226 lung is 26.6 µM; in the assay with HT29 colon, above 100 µM; in the assay with NCI-H460 lung, 1.85 µM; in the assay on HCC-2998 colon it was 10.5 µM; in the assay on K-562 leukemia it was above 100 µM; in the assay on CAKI-1 renal, 17 µM. Further, the TGI in the assay on HL-60(TB) leukemia was 6.67 µM; in the assay on SK-MEL-28 melanoma, 22.3 µM; in the assay on CCRF-CEM leukemia it was above 100 µM; with A498 renal it was 0.815 µM.
As to `CC(=O)Nc1ccc2c(c1)[nH]c(=O)c1cc(Cl)ccc12`, the TGI in the assay on NCI-H226 lung is 90.4 µM; with HT29 colon it was 41.5 µM; in the assay with NCI-H460 lung, 52.9 µM; with HCC-2998 colon it was above 100 µM; in the assay with K-562 leukemia it was above 100 µM; in the assay on CAKI-1 renal, 8.4 µM. Also, the TGI is above 100 µM in the assay on HL-60(TB) leukemia, above 100 µM in the assay on SK-MEL-28 melanoma, 13.4 µM in the assay with CCRF-CEM leukemia and above 100 µM with A498 renal.
Take `CC(C)OC(=O)c1cc(NC(=S)OC(C)C)ccc1Cl`: the TGI in the assay on NCI-H226 lung is 37.6 µM; in the assay with HT29 colon, 38.6 µM; in the assay with NCI-H460 lung, above 55.3 µM; with HCC-2998 colon it was above 57.5 µM; in the assay on K-562 leukemia, above 100 µM; in the assay with CAKI-1 renal, 35.3 µM. Besides, the TGI in the assay on HL-60(TB) leukemia is above 31.6 µM; in the assay on SK-MEL-28 melanoma it was above 57 µM; in the assay on CCRF-CEM leukemia, above 96.3 µM; in the assay with A498 renal, above 51.1 µM.
For the molecule `CCCCCCCC(=O)OC[n+]1cccc(-c2c(COC(=O)NC(C)C)c(COC(=O)NC(C)C)c3n2CCC3)c1`, the TGI is above 100 µM with NCI-H226 lung; above 100 µM with HT29 colon; above 100 µM in the assay with NCI-H460 lung; above 100 µM in the assay with HCC-2998 colon; above 100 µM in the assay on K-562 leukemia; above 87.5 µM in the assay with CAKI-1 renal. Besides, the TGI in the assay with HL-60(TB) leukemia is above 82.1 µM; with SK-MEL-28 melanoma, above 100 µM; in the assay with CCRF-CEM leukemia, above 84 µM; with A498 renal, above 89.4 µM.
Consider `CCOC(=O)C(=O)Nc1nc2ccc(OC)cc2s1`, for which the TGI in the assay on NCI-H226 lung, with HT29 colon, in the assay on NCI-H460 lung, in the assay on HCC-2998 colon, in the assay with K-562 leukemia and in the assay with CAKI-1 renal was above 100 µM throughout. Moreover, the TGI in the assay with HL-60(TB) leukemia, in the assay on SK-MEL-28 melanoma, in the assay on CCRF-CEM leukemia and in the assay with A498 renal was above 100 µM throughout.
